Data taken from patent US20110105564A1, “THIENYLPYRIDYLCARBOXAMIDES” (Bayer CropScience AG, priority 2005, published 2011).

Assay: logP determination by HPLC on a reverse-phase column (EEC Directive 79/831 Annex V.A8)
Format: physicochemical
Conditions: reverse-phase HPLC column (C 18); acidic range pH 2.3; 0.1% aqueous phosphoric acid and acetonitrile, linear gradient 10% to 90% acetonitrile; C 18 column; 43° C.
Protocol: The logP values given in the Tables and Preparation Examples above are determined in accordance with EEC Directive 79/831 Annex V.A8 by HPLC (High Performance Liquid Chromatography) on a reverse-phase column (C 18). Temperature: 43° C. The determination is carried out in the acidic range at pH 2.3 using the mobile phases 0.1% aqueous phosphoric acid and acetonitrile; linear gradient from 10% acetonitrile to 90% acetonitrile. Calibration is carried out using unbranched alkan-2-ones (having 3 to 16 carbon atoms), with known logP values (determination of the logP values by the retention times using linear interpolation between two successive alkanones).

In order of rising chromatographic logP:
1. Nc1ccsc1-c1ccc(Br)cn1 [Example (III-1), 2-(5-bromopyridin-2-yl)thiophene-3-amine]  0.87
2. O=C(Nc1ccsc1-c1ccc(Br)cn1)c1cccnc1Cl [Example 1, N-[2-(5-bromopyridin-2-yl)-3-thienyl]-2-chloronicotinamide]  2.25
3. CC(C)(C)OC(=O)Nc1ccsc1I [Example (VI-1), tert-butyl (2-iodo-3-thienyl)carbamate]  2.43
4. CC(C)(C)OC(=O)Nc1ccsc1-c1ccc(Br)cn1 [Example (III-a-1), tert-butyl[2-(5-bromopyridin-2-yl)-3-thienyl]carbamate]  3.27
